In brackets after ≈: the same amount, converted by molar mass.
What was measured:
[1] = Cytotoxicity against human A549 cells assessed as growth inhibition at 30 ug/ml after 48 hrs by MTT assay relative to control; assay type: cell-based; conditions: read-out: GI
[2] = Cytotoxicity against human A549 cells assessed as growth inhibition at 3 ug/ml after 48 hrs by MTT assay relative to control; assay type: cell-based; conditions: read-out: GI
[3] = test system: Mycobacterium tuberculosis; assay: Antimycobacterial activity against dormant state of Mycobacterium tuberculosis H37Ra assessed as growth inhibition at 3 ug/ml after 12 days by XTT reduction menadione assay relative to control; assay type: functional; conditions: 288 h, read-out: GI
[4] = test system: Mycobacterium tuberculosis; assay: Antimycobacterial activity against dormant state of Mycobacterium tuberculosis H37Ra assessed as growth inhibition at 10 ug/ml after 12 days by XTT reduction menadione assay relative to control; assay type: functional; conditions: 288 h, read-out: GI
[5] = test system: Mycobacterium tuberculosis; assay: Antimycobacterial activity against dormant state of Mycobacterium tuberculosis H37Ra assessed as growth inhibition at 30 ug/ml after 12 days by XTT reduction menadione assay relative to control; assay type: functional; conditions: 288 h, read-out: GI
[6] = test system: Mycobacterium tuberculosis; assay: Antimycobacterial activity against dormant state of Mycobacterium tuberculosis H37Ra by two fold dilution method; assay type: functional
[7] = Cytotoxicity against human HCT116 cells assessed as growth inhibition at 30 ug/ml after 48 hrs by MTT assay relative to control; assay type: cell-based, HCT-116; conditions: read-out: GI
[8] = Cytotoxicity against human MCF7 cells assessed as growth inhibition at 3 ug/ml after 48 hrs by MTT assay relative to control; assay type: cell-based; conditions: read-out: GI
[9] = Cytotoxicity against human HCT116 cells assessed as growth inhibition at 10 ug/ml after 48 hrs by MTT assay relative to control; assay type: cell-based, HCT-116; conditions: read-out: GI
[10] = Cytotoxicity against human A549 cells assessed as growth inhibition at 10 ug/ml after 48 hrs by MTT assay relative to control; assay type: cell-based; conditions: read-out: GI
[11] = Cytotoxicity against human MCF7 cells assessed as growth inhibition at 10 ug/ml after 48 hrs by MTT assay relative to control; assay type: cell-based; conditions: read-out: GI
[12] = Cytotoxicity against human MCF7 cells assessed as growth inhibition at 30 ug/ml after 48 hrs by MTT assay relative to control; assay type: cell-based; conditions: read-out: GI
[13] = Cytotoxicity against human HCT116 cells assessed as growth inhibition at 3 ug/ml after 48 hrs by MTT assay relative to control; assay type: cell-based, HCT-116; conditions: read-out: GI
MCF7 = assay: (§1) Cytotoxicity against human MCF7 cells assessed as growth inhibition after 48 hrs by MTT assay; assay type: cell-based; conditions: mcf7, 48 h
[14] = as §1; assay type: cell-based; conditions: MCF7 cells
Pseudomonas fluorescens = assay: Antibacterial activity against Pseudomonas fluorescens ATCC 13525 after 8 hrs; assay type: functional; conditions: ATCC 13525, 8 h
Escherichia coli = assay: Antibacterial activity against Escherichia coli ATCC […] after 8 hrs; assay type: functional
Bacillus subtilis = assay: Antibacterial activity against Bacillus subtilis ATCC 23857 after 12 hrs; assay type: functional; conditions: ATCC 23857, 12 h
A549 = assay: (§2) Cytotoxicity against human A549 cells assessed as growth inhibition after 48 hrs by MTT assay; assay type: cell-based; conditions: a549, 48 h
[15] = as §2; assay type: cell-based; conditions: A549 cells
Staphylococcus aureus = assay: Antibacterial activity against Staphylococcus aureus ATCC 29213 after 12 hrs; assay type: functional; conditions: ATCC 29213, 12 h
HCT-116 = assay: (§3) Cytotoxicity against human HCT116 cells assessed as growth inhibition after 48 hrs by MTT assay; assay type: cell-based; conditions: hct-116, 48 h
[16] = as §3; assay type: cell-based, HCT-116; conditions: HCT116 cells

Structure (SMILES) | inhibition at 48 h, 30 ug/ml [1] | inhibition at 48 h, 3 ug/ml [2] | inhibition of growth at 3 µg/mL [3] | inhibition of growth at 10 µg/mL [4] | inhibition of growth at 30 µg/mL [5] | MIC50 [6] | MIC90 [6] | inhibition at 48 h, 30 ug/ml [7] | inhibition at 48 h, 3 ug/ml [8] | inhibition at 48 h, 10 ug/ml [9] | inhibition at 48 h, 10 ug/ml [10] | inhibition at 48 h, 10 ug/ml [11] | inhibition at 48 h, 30 ug/ml [12] | inhibition at 48 h, 3 ug/ml [13] | GI90 (MCF7) | GI50 at 48 h [14] | MIC50 (Pseudomonas fluorescens) | MIC90 (Pseudomonas fluorescens) | MIC50 (Escherichia coli) | MIC90 (Escherichia coli) | further results
Cc1cccc2cc(/C=C3\CN(C)C/C(=C\c4cc5cccc(C)c5nc4Cl)C3=O)c(Cl)nc12 | -20.4% | -11% | 22.4% | 15.3% | 51.5% | 27 µg/mL (≈ 55.3 µM) | > 30 µg/mL | 1.6% | 0% | 4.1% | 0% | 0% | 0% | -4.3% |  |  |  |  |  |  | 
Cc1ccc2cc(/C=C3\CN(C)C/C(=C\c4cc5ccc(C)cc5nc4Cl)C3=O)c(Cl)nc2c1 | 45.7% | 30.2% | -17.1% | 81.7% | 98.6% | 7.7 µg/mL (≈ 15.8 µM) | 20 µg/mL (≈ 40.9 µM) | 27.4% | 46.1% | 13.7% | 34.6% | 52% | 63.7% | 12.9% | > 100 µg/mL | 8.23 µg/mL (≈ 16.9 µM) | > 30 µg/mL | > 30 µg/mL | > 30 µg/mL | > 30 µg/mL | MIC50 (Bacillus subtilis): > 30 µg/mL; MIC90 (Bacillus subtilis): > 30 µg/mL; GI90 (A549): > 100 µg/mL; GI50 at 48 h [15]: > 100 µg/mL; MIC50 (Staphylococcus aureus): > 30 µg/mL; MIC90 (Staphylococcus aureus): > 30 µg/mL; GI90 (HCT-116): > 100 µg/mL; GI50 at 48 h [16]: > 100 µg/mL
CN1C/C(=C\c2cc3cc(Cl)ccc3nc2Cl)C(=O)/C(=C/c2cc3cc(Cl)ccc3nc2Cl)C1 | 48.9% | 0% | 35.4% | 7.2% | 43.1% | > 30 µg/mL | > 30 µg/mL | 11.7% | 22.8% | 11.9% | 48.9% | 42.8% | 58.7% | 2% | > 100 µg/mL | 29.8 µg/mL (≈ 56.3 µM) | > 30 µg/mL | > 30 µg/mL | > 30 µg/mL | > 30 µg/mL | MIC50 (Bacillus subtilis): > 30 µg/mL; MIC90 (Bacillus subtilis): > 30 µg/mL; GI90 (A549): > 100 µg/mL; GI50 at 48 h [15]: > 100 µg/mL; MIC50 (Staphylococcus aureus): > 30 µg/mL; MIC90 (Staphylococcus aureus): > 30 µg/mL; GI90 (HCT-116): > 100 µg/mL; GI50 at 48 h [16]: > 100 µg/mL
O=C1/C(=C/c2cc3cc(Cl)ccc3nc2Cl)CNC/C1=C\c1cc2cc(Cl)ccc2nc1Cl | -12% | 2.3% | 23.7% | 24.5% | 53.8% | 27.8 µg/mL (≈ 54 µM) | > 30 µg/mL | -14.5% | 14.3% | -22.2% | 0% | 22.8% | 50% | -18.3% |  |  |  |  |  |  | 
Cc1ccc2nc(Cl)c(/C=C3\CN(C)C/C(=C\c4cc5cc(C)ccc5nc4Cl)C3=O)cc2c1 | 0% | 0% | -18.6% | 15.6% | 36.8% | > 30 µg/mL | > 30 µg/mL | 16.5% | 1.7% | 10.5% | 0% | 18.7% | 44.8% | 12.5% |  |  |  |  |  |  | 
O=C1/C(=C/c2cc3ccccc3nc2Cl)CNC/C1=C\c1cc2ccccc2nc1Cl | -14.1% | 0% | 9.6% | 43.6% | 33.3% | > 30 µg/mL | > 30 µg/mL | 0% | 22.2% | 0% | 0% | 23.2% | 26.3% | 0% |  |  |  |  |  |  | 

Source: ChEMBL document CHEMBL4002627, “Quinolidene based monocarbonyl curcumin analogues as promising antimycobacterial agents: Synthesis and molecular docking study” (Bioorg Med Chem Lett, 2017)
